According to PubChem BioAssay AID2060601 (Molecular Pharmacology Branch, DTP, NCI, 2025):
Several values for one entry are separate records, joined by “and”; a condition that tells them apart may be missing. Equal entries are not always repeated.

System: 874868-142-R-J2-PDC complex spheroids, growth % test/control
Assay: Anticancer human tumor 874868-142-R-J2-PDC patient-derived head and neck squamous carcinoma cell line growth inhibition [CLK]
Conditions: for viability, T/C: stronger effect = lower value; for IC50: curve of compound
Source text: A high-throughput screen of multi-cell type tumor spheroids was designed to identify active combinations of […] and targeted small molecules. Complex spheroids include a stromal component modeled by human endothelial cells (HUVEC) and fibroblasts modeled by human mesenchymal stem cells (MSCs). The concentration ranges selected for each drug and investigational agent were based upon clinically achievable concentrations if the clinical Cmax of the agent was known.
Compounds. The drugs and investigational agents: cirtuvivint (SM08502; NSC835563), CC-671 (NSC850746), vemurafenib (NSC761431), tapotoclax (NSC804041), sotorasib (NSC818433), adagrasib (NSC831453), MRTX-1133 (NSC836407), BAY2416964 (NSC825713), copanlisib (NSC816437), inavolisib (NSC800729), abemaciclib (NSC768073), osimertinib (NSC779217), entinostat (NSC756642), eltanexor (KPT-8602, NSC794443), venetoclax (NSC766270), ceralasertib (NSC777638), bortezomib (NSC756655), olaparib (NSC753686), talazoparib (NSC767125), alisertib (NSC759677), peposertib (NSC802822), gemcitabine (NSC613327), 5-fluorouracil (NSC19893), SN-38 (NSC673596), oxaliplatin (NSC266046), paclitaxel (NSC125973), and doxorubicin (NSC123127), were obtained from the National Cancer Institute (NCI) Developmental Therapeutics Program Chemical Repository. The FDA-approved anticancer drug set is available from the Developmental Therapeutics Program at https://dtp.cancer.gov/organization/dscb/obtaining/available plates.htm. […] The stock solutions were prepared in dimethyl sulfoxide (DMSO, Sigma-Aldrich, St. Louis, MO, cat. D2650), except for the platinum complexes which were prepared in saline (Quality Biological, Gaithersburg, MD, cat. 114-055-101), at 800-fold the tested concentration and stored at -70 degrees C prior to their use. All drugs and investigational agents were tested over a range starting from a high concentration at or near the clinical Cmax and decreasing in half-log increments. If the clinical Cmax for an agent had not been determined, the highest concentration tested was 10 microM.
Cell Culture. All cells were maintained in an incubator at 37 degrees C and 5% CO2 with 95% humidity. The PDC lines were cultured according to standard operating procedures established by the NCI PDMR. Briefly, all PDCs were thawed and cultured in Matrigel-coated flasks prepared with a working solution of 1X Ham's F-12 nutrient mix, without supplementation (Invitrogen, Waltham, MA, cat. 11765054), 100 U/mL penicillin-streptomycin (Invitrogen, cat. 15140122), and 2.5% Matrigel (Corning Inc., Corning, NY, cat. 354248) for the first three passages. The 947758-054-R-J2-PDC line was cultured in 6B/Colon 1A media, which includes advanced DMEM/F-12 (Thermo Fisher Scientific, cat. 12634028), 10 mM HEPES (Thermo Fisher Scientific, cat. 15630080), 1X GlutaMAX supplement (Thermo Fisher Scientific, cat. 35050061), 0.1 mg/mL primocin (InvivoGen, cat. ant-pm-2), 10% defined fetal bovine serum, heat inactivated (HyClone Laboratories Inc., cat. SH30070.03HI), 1.25 mM N-Acetyl-L-cysteine (Sigma-Aldrich, cat. A9165), 10 mM nicotinamide (Sigma-Aldrich, cat. N0636), 1X B-27 supplement (Thermo Fisher Scientific, cat. 17504044), 1X N-2 supplement (Thermo Fisher Scientific, cat. 17502048), and 10 microM Y-27632 dihydrochloride (Tocris Bioscience, cat. 1254). The 876862-298-R-J1-PDC was cultured in 6E media, which includes all 6B/Colon 1A media components plus 50% L-WRN conditioned media (ATCC, cat. CRL-3276), 50 ng/mL recombinant human EGF recombinant protein (hEGF; Thermo Fisher Scientific, cat. PHG0311), 10 ng/mL recombinant human fibroblast growth factor 10 (hGFG-10; PeproTech, cat. 100-26), 1 ng/mL recombinant human fibroblast growth factor 2 (hFGF-2; PeproTech, cat. 100-18B), and 1 µM prostaglandin E2 (PGE2; Tocris, cat. 2296). The 227483-062-R1-J1-PDC line was cultured in Panc media, containing all 6E components except hFGF-2, with the addition of 500 nM SB-431542 (Selleckchem, cat. S1067) and 10 nM gastrin (Tocris, cat. 3006). […]
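Note: spheroids exposed to the compounds for 7 days.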

Row | SMILES | IC50 | viability, T/C (compound 0.0316 µM) | viability, T/C (compound 0.1 µM) | viability, T/C (compound 0.316 µM) | viability, T/C (compound 1 µM) | viability, T/C (compound 3.16 µM) | viability, T/C (compound 10 µM) | viability, T/C (compound 0.000949 µM) | viability, T/C (compound 0.003 µM) | viability, T/C (compound 0.00949 µM) | viability, T/C (compound 0.03 µM) | viability, T/C (compound 0.0949 µM) | viability, T/C (compound 0.3 µM)
1 | C#Cc1c(F)ccc2cc(O)cc(-c3ncc4c(N5CC6CCC(C5)N6)nc(OCC56CCCN5CC(F)C6)nc4c3F)c12 (configuration not stated) | 9280 nM and > 10000 nM | 87.8% and 104% | 90.5% and 95.1% | 85.1% and 93.7% | 82.3% and 61% | 61.4% and 59% | 49.3% and 46% | – | – | – | – | – | –
2 | C=C(F)C(=O)N1CCN(c2nc(OCC3CCCN3C)nc3c2CCN(c2cccc4cccc(Cl)c24)C3)CC1CC#N (configuration not stated) | 3200 nM and 4140 nM | 81.4% and 94.5% | 95.2% and 103% | 76.2% and 82.3% | 68.4% and 87.2% | 53.2% and 64.6% | 1.63% and 4.44% | – | – | – | – | – | –
3 | C=CC(=O)Nc1cc(Nc2nccc(-c3cn(C)c4ccccc34)n2)c(OC)cc1N(C)CCN(C)C | 83.5 nM and 85.2 nM | – | – | – | – | – | – | 103% and 99.9% | 99.5% and 112% | 81.5% and 83.4% | 83.7% and 76.9% | 42.4% and 47.1% | 24.2% and 20.6%
4 | CC(=O)O[C@H]1C(=O)[C@@]2(C)[C@H]([C@H](OC(=O)c3ccccc3)[C@]3(O)C[C@H](OC(=O)[C@H](O)[C@@H](NC(=O)c4ccccc4)c4ccccc4)C(C)=C1C3(C)C)[C@]1(OC(C)=O)CO[C@@H]1C[C@@H]2O | < 31.6 nM | 24.8% and 41.2% | 22.5% and 38.5% | 21.1% and 41.4% | 28.7% and 47.2% | 23.2% and 42.7% | 36.4% and 50.2% | – | – | – | – | – | –
5 | CC(C)CC(NC(=O)C(Cc1ccccc1)NC(=O)c1cnccn1)B(O)O (configuration not stated) | 6.41 nM and 5.45 nM | – | – | – | – | – | – | 102% and 92.4% | 112% and 103% | 20.4% and 5.73% | 3.18% and 1.36% | 0.29% and 1.25% | 0.24% and 4.02%
6 | CC1(C)CCC(CN2CCN(c3ccc(C(=O)NS(=O)(=O)c4ccc(NCC5CCOCC5)c([N+](=O)[O-])c4)c(Oc4cnc5[nH]ccc5c4)c3)CC2)=C(c2ccc(Cl)cc2)C1 | > 10000 nM and 8720 nM | 79.2% and 90.1% | 104% and 95.1% | 97.9% and 100% | 101% and 91.3% | 93% and 97.6% | 84.1% and 44% | – | – | – | – | – | –
7 | CC1COCCN1c1cc(C2(S(C)(=N)=O)CC2)nc(-c2ccnc3[nH]ccc23)n1 (configuration not stated) | 1640 nM and 2160 nM | 93.5% and 84.9% | 91.8% and 114% | 82.2% and 76% | 63.7% and 61.2% | 32.2% and 49% | 28.2% and 38.6% | – | – | – | – | – | –

Second part, led by results:

Row | IC50 | SMILES | viability, T/C (compound 0.0316 µM) | viability, T/C (compound 0.1 µM) | viability, T/C (compound 0.316 µM) | viability, T/C (compound 1 µM) | viability, T/C (compound 3.16 µM) | viability, T/C (compound 10 µM) | viability, T/C (compound 0.000949 µM) | viability, T/C (compound 0.003 µM) | viability, T/C (compound 0.00949 µM) | viability, T/C (compound 0.03 µM) | viability, T/C (compound 0.0949 µM) | viability, T/C (compound 0.3 µM)
8 | > 10000 nM | C=CC(=O)N1CCN(c2nc(=O)n(-c3c(C)ccnc3C(C)C)c3nc(-c4c(O)cccc4F)c(F)cc23)C(C)C1 (configuration not stated) | 109% and 92.4% | 84.9% and 96% | 109% and 104% | 119% and 104% | 133% and 131% | 114% and 88.2% | – | – | – | – | – | –
9 | > 10000 nM | CC(CO)NC(=O)c1cc(-c2ccc(Cl)cc2)nn(-c2cnn(C)c2)c1=O (configuration not stated) | 102% and 93.8% | 95.6% and 100% | 97.7% and 89.3% | 101% and 94.3% | 102% and 94.3% | 95.6% and 99.3% | – | – | – | – | – | –
10 | 82.4 nM | CC(Nc1ccc2c(c1)OCCn1cc(N3C(=O)OCC3C(F)F)nc1-2)C(N)=O (configuration not stated) | 89.2% | 38.7% | 28.3% | 23.4% | 13.5% | 13.2% | – | – | – | – | – | –
11 | > 10000 nM | CCCS(=O)(=O)Nc1ccc(F)c(C(=O)c2c[nH]c3ncc(-c4ccc(Cl)cc4)cc23)c1F | 115% and 95.8% | 113% and 129% | 116% and 105% | 111% and 136% | 120% and 141% | 85.7% and 73.7% | – | – | – | – | – | –
